Measurements reported in ChEMBL document CHEMBL4033735, “A potent and selective natriuretic peptide receptor-3 blocker 11-mer peptide created by hybridization of musclin and atrial natriuretic peptide” (Bioorg Med Chem Lett, 2017).
Calls of active or inactive are those of the source. The calls are words filed in the database; no cut-off is given here. Square brackets hold non-standard residues; d marks the D form. Peptide text beside a SMILES is read from it. Cha = N[C@@H](CC1CCCCC1)C(=O)O

What was measured:
[1] = Stability in C57BL/6J mouse serum assessed as residual parent compound remaining at 1 mM after 60 mins at 37 degC by HPLC method; assay type: ADME, cell-free; conditions: read-out: Stability
[2] = biological target: T1, Atrial natriuretic peptide receptor 1 (Homo sapiens, UniProt P16066); assay: Displacement of [125I]-human ANP from human NPR-1 incubated for 2 hrs by top count method
T1 sequence (P16066 whole entry): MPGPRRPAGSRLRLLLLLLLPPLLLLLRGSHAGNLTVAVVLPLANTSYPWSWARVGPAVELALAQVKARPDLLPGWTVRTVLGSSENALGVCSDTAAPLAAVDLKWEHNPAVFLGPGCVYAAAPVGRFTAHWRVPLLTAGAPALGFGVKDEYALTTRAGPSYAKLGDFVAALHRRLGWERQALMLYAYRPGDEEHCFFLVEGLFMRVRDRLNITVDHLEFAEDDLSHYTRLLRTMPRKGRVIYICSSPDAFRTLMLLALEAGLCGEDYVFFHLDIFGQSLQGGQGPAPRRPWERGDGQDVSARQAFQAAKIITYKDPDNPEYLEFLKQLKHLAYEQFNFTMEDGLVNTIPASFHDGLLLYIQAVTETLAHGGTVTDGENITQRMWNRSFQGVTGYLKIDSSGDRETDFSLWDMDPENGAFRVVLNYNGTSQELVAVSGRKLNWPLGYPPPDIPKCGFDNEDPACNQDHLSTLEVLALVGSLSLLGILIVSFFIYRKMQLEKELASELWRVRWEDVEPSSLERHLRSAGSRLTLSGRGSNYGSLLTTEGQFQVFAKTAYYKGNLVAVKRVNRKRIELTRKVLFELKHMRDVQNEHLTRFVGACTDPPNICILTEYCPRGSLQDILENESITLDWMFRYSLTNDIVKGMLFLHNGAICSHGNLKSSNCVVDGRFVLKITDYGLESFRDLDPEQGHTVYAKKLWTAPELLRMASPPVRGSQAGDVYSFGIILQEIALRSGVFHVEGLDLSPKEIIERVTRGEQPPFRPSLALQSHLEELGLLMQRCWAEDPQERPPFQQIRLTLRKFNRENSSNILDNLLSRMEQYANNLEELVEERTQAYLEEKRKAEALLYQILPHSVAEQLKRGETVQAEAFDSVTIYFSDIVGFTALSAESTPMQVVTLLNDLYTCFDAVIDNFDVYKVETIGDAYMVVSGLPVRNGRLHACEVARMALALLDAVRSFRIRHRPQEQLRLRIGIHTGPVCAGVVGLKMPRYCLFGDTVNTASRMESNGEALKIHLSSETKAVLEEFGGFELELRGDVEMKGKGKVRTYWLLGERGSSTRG

[3] = biological target: T2, Atrial natriuretic peptide receptor 3 (Homo sapiens, UniProt P17342); assay: Displacement of [125I]-human ANP from His-tagged and Fc fragment containing human NPR-3 extracellular domain expressed in FreeStyle 293 cells incubated for 2 hrs by top count method; assay type: cell-based
T2 sequence (P17342 whole entry): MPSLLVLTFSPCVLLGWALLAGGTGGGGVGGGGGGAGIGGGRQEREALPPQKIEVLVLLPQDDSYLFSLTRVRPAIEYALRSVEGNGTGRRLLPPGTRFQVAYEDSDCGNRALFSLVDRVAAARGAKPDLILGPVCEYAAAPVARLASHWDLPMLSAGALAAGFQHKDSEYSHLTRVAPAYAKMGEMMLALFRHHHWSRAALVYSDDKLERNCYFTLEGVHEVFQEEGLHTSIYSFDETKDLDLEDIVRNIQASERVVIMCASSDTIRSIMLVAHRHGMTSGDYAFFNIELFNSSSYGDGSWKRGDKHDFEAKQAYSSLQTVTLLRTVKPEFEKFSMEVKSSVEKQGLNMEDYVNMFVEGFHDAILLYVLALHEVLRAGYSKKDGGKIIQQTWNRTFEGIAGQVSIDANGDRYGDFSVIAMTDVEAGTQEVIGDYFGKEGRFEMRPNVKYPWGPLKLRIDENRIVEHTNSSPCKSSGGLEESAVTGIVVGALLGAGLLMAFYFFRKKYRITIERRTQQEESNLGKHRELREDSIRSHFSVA

[4] = Stability in C57BL/6J mouse serum assessed as residual parent compound remaining at 1 mM after 30 mins at 37 degC by HPLC method; assay type: ADME, cell-free; conditions: read-out: Stability
Mus musculus [5] = assay: Increase in cGMP production C57BL/6J mouse blood at 1 umol/kg/day, sc administered via infusion from implanted osmotic pumps for 7 days and co-dosed with 1 umol/kg/day mANP by enzyme immunoassay; assay type: functional, organism-based
[6] = Stability in C57BL/6J mouse serum assessed as residual parent compound remaining at 1 mM after 2 hrs at 37 degC by HPLC method; assay type: ADME, cell-free; conditions: read-out: Stability
[7] = Stability in C57BL/6J mouse serum assessed as residual parent compound remaining at 1 mM after 4 hrs at 37 degC by HPLC method; assay type: ADME, cell-free; conditions: read-out: Stability
[8] = Drug level in mouse blood at 1000 nmol/kg/day dosed as continuous administration for 3 days; assay type: ADME, organism-based; conditions: whole blood, read-out: Drug uptake
[9] = biological target: T3, Atrial natriuretic peptide receptor 3 (Mus musculus) (UniProt P70180); assay: Activity at NPR-3 in C57BL/6J mouse primary adipocytes assessed as increase in mANP-stimulated cGMP production at 1 uM pre-incubated for 30 mins before mANP stimulation for 15 mins by enzyme immunoassay; assay type: cell-based
T3 sequence (whole entry): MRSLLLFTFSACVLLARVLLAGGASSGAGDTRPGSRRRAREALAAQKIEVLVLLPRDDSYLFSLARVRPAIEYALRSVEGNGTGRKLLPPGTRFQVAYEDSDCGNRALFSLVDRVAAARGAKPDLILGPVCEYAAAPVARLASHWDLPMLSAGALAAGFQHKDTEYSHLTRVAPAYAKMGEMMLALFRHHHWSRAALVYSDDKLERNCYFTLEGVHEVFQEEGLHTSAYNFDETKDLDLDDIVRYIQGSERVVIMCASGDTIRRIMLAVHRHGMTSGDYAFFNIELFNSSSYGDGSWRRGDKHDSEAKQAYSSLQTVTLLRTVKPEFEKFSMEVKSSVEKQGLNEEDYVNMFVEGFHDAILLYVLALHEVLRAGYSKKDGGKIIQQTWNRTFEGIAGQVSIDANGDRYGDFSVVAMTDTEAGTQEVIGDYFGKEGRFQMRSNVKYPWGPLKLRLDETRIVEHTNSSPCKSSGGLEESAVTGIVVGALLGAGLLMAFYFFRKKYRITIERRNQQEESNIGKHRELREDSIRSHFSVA

Mus musculus [10] = assay: Increase in cGMP production C57BL/6J mouse blood at 1 umol/kg/day, sc administered via infusion from implanted osmotic pumps for 7 days by enzyme immunoassay; assay type: functional, organism-based
[11] = Drug level in mouse blood at 300 nmol/kg/day dosed as continuous administration for 3 days; assay type: ADME, organism-based; conditions: whole blood, read-out: Drug uptake
Serum = assay: Stability in C57BL/6J mouse serum at 1 mM up to 4 hrs at 37 degC by HPLC method; assay type: ADME, cell-free; conditions: 1000 µM
[12] = Stability in 10% C57BL/6J mouse serum/phosphate-buffered saline assessed as residual parent compound remaining at 1 mM after 60 mins at 37 degC by HPLC method; assay type: ADME, cell-free; conditions: 10% mouse serum in phosphate-buffered saline, read-out: Stability
[13] = Stability in 10% C57BL/6J mouse serum/phosphate-buffered saline assessed as residual parent compound remaining at 1 mM after 30 mins at 37 degC by HPLC method; assay type: ADME, cell-free; conditions: 10% mouse serum in phosphate-buffered saline, read-out: Stability

Structure (SMILES)	remaining at 1 h, 1000 µM [1]	IC50 [2]	IC50 [3]	remaining at 0.5 h, 1000 µM [4]	Activity (Mus musculus [5])	remaining at 2 h, 1000 µM [6]	remaining at 4 h, 1000 µM [7]	concentration at 72 h [8]	Activity [9]	Activity (Mus musculus [10])	concentration at 72 h [11]	Stability (Serum)	remaining at 1 h, 1000 µM [12]	remaining at 0.5 h, 1000 µM [13]
CC[C@H](C)[C@H](NC(=O)[C@H](CCCNC(=N)N)NC(=O)[C@H](CC(=O)O)NC(=O)[C@@H](NC(=O)[C@@H]1CCCN1C(=O)CNC(=O)[C@@H](C)NC(=O)[C@H](CC1CCCCC1)NC(=O)[C@H]1CCCN1C(=O)[C@H](CO)NC(=O)[C@@H](Cc1ccccc1)NC(C)=O)[C@@H](C)CC)C(N)=O	68%	> 1000 nM	0.054 nM	81%										
CC[C@H](C)[C@H](NC(=O)[C@H](CCCNC(=N)N)NC(=O)[C@H](CC(=O)O)NC(=O)[C@@H](NC(=O)[C@H](CCCNC(=N)N)NC(=O)CNC(=O)CNC(=O)[C@H](CC1CCCCC1)NC(=O)CNC(=O)[C@H](CO)NC(=O)[C@H](N)Cc1ccccc1)[C@@H](C)CC)C(=O)NCC(N)=O		> 1000 nM	0.12 nM										80%	100%
CC[C@H](C)[C@H](NC(=O)[C@H](CCCNC(=N)N)NC(=O)[C@H](CC(=O)O)NC(=O)[C@@H](NC(=O)[C@H](CCCNC(=N)N)NC(=O)CNC(=O)CNC(=O)[C@H](CC1CCCCC1)NC(=O)CNC(=O)[C@H](CO)NC(=O)[C@H](Cc1ccccc1)NC(=O)[C@H](CO)NC(=O)[C@@H](N)CCCNC(=N)N)[C@@H](C)CC)C(=O)NCC(N)=O (H-RSFSG[Cha]GGRIDRIG-NH2)		> 1000 nM	0.3 nM										0%	5%
CC[C@H](C)[C@H](NC(=O)[C@H](CCCNC(=N)N)NC(=O)[C@H](CC(=O)O)NC(=O)[C@@H](NC(=O)[C@H](CCCNC(=N)N)NC(=O)CNC(=O)CNC(=O)[C@H](CC1CCCCC1)NC(=O)CNC(=O)[C@H](CO)NC(=O)[C@@H](N)Cc1ccccc1)[C@@H](C)CC)C(=O)NCC(N)=O		> 1000 nM	1.2 nM										0%	1.4%

Further lines, with some results ahead:

remaining at 1 h, 1000 µM [1]	IC50 [2]	IC50 [3]	remaining at 0.5 h, 1000 µM [4]	Activity (Mus musculus [5])	remaining at 2 h, 1000 µM [6]	remaining at 4 h, 1000 µM [7]	concentration at 72 h [8]	Activity [9]	Activity (Mus musculus [10])	concentration at 72 h [11]	Stability (Serum)	Structure (SMILES)	remaining at 1 h, 1000 µM [12]	remaining at 0.5 h, 1000 µM [13]
74%	> 1000 nM	0.087 nM	86%									CC[C@H](C)[C@H](NC(=O)[C@H](CCCNC(=N)N)NC(=O)[C@H](CC(=O)O)NC(=O)[C@@H](NC(=O)[C@@H]1CCCN1C(=O)CNC(=O)[C@@H](C)NC(=O)[C@H](CC1CCCCC1)NC(=O)[C@H]1CCCN1C(=O)[C@H](CO)NC(=O)[C@@H](Cc1ccccc1)NC(C)=O)[C@@H](C)CC)C(=O)NC		
	> 1000 nM	0.079 nM		Active	107%	92%	40.5 nM	Active	Active	10.1 nM		CC[C@H](C)[C@H](NC(=O)[C@H](CCCNC(=N)NC)NC(=O)[C@H](CC(=O)O)NC(=O)[C@@H](NC(=O)[C@@H]1C[C@@H](O)CN1C(=O)CNC(=O)[C@@H](CO)NC(=O)[C@H](CC1CCCCC1)NC(=O)[C@H]1C[C@H](O)CN1C(=O)[C@H](CO)NC(=O)[C@@H](Cc1ccccc1)NC(=O)CO)[C@@H](C)CC)C(=O)NC		
	> 1000 nM	0.099 nM			100%	102%					Stable	CC[C@H](C)[C@H](NC(=O)[C@H](CCCNC(=N)NC)NC(=O)[C@H](CC(=O)O)NC(=O)[C@@H](NC(=O)[C@@H]1C[C@@H](O)CN1C(=O)CNC(=O)[C@@H](C)NC(=O)[C@H](CC1CCCCC1)NC(=O)[C@H]1C[C@H](O)CN1C(=O)[C@H](CO)NC(=O)[C@@H](Cc1ccccc1)NC(C)=O)[C@@H](C)CC)C(=O)NC		
84%	> 1000 nM	0.14 nM	91%		77%	62%	13.7 nM					CC[C@H](C)[C@H](NC(=O)[C@H](CCCNC(=N)NC)NC(=O)[C@H](CC(=O)O)NC(=O)[C@@H](NC(=O)[C@@H]1CCCN1C(=O)CNC(=O)[C@@H](C)NC(=O)[C@H](CC1CCCCC1)NC(=O)[C@H]1CCCN1C(=O)[C@H](CO)NC(=O)[C@@H](Cc1ccccc1)NC(C)=O)[C@@H](C)CC)C(=O)NC		
